From PubChem BioAssay AID328 (DTP/NCI, 2004)
“And” between values parts separate entries of the source, which are not always exact repeats. Equal entries are not always repeated. Inconclusive results and toxic doses are left out.

System: BDF1 mice, P388 leukemia ip, median survival T/C
Test: NCI In Vivo Anticancer Drug Screen. Data for tumor model P388 Leukemia (intraperitoneal) in B6D2F1 (BDF1) mice
Details: endpoint: median survival time, higher = longer survival
Summary of the method: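 In tumour-bearing mice, survival after compound treatment is set against the vehicle group and given as a quotient.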

[1] = dose: 100.0 mg/kg/injection, schedule: Q04DX003 (ip), vehicle: saline with Tween-80
[2] = dose: 200.0 mg/kg/injection, schedule: Q04DX003 (ip), vehicle: saline with Tween-80
[3] = dose: 400.0 mg/kg/injection, schedule: Q04DX003 (ip), vehicle: saline with Tween-80
[4] = dose: 25.0 mg/kg/injection, schedule: Q01DX009 (ip), vehicle: saline with Tween-80
[5] = dose: 50.0 mg/kg/injection, schedule: Q01DX009 (ip), vehicle: saline with Tween-80
[6] = dose: 100.0 mg/kg/injection, schedule: Q01DX009 (ip), vehicle: saline with Tween-80
[7] = dose: 50.0 mg/kg/injection, schedule: Q01DX005 (ip), vehicle: saline with Tween-80
[8] = dose: 100.0 mg/kg/injection, schedule: Q01DX005 (ip), vehicle: saline with Tween-80
[9] = dose: 200.0 mg/kg/injection, schedule: Q01DX005 (ip), vehicle: saline with Tween-80
[10] = dose: 100.0 mg/kg/injection, schedule: Q01DX001 (ip), vehicle: saline
[11] = dose: 100.0 mg/kg/injection, schedule: Q04DX003 (ip), vehicle: saline
[12] = dose: 200.0 mg/kg/injection, schedule: Q01DX001 (ip), vehicle: saline
[13] = dose: 200.0 mg/kg/injection, schedule: Q04DX003 (ip), vehicle: saline
[14] = dose: 400.0 mg/kg/injection, schedule: Q01DX001 (ip), vehicle: saline
[15] = dose: 400.0 mg/kg/injection, schedule: Q04DX003 (ip), vehicle: saline
[16] = dose: 100.0 mg/kg/injection, schedule: Q04DX003 (ip), vehicle: Klucel (hydroxypropylcellulose) (HPC)
[17] = dose: 200.0 mg/kg/injection, schedule: Q04DX003 (ip), vehicle: Klucel (hydroxypropylcellulose) (HPC)
[18] = dose: 400.0 mg/kg/injection, schedule: Q04DX003 (ip), vehicle: Klucel (hydroxypropylcellulose) (HPC)
[19] = dose: 50.0 mg/kg/injection, schedule: Q04DX003 (ip), vehicle: saline with Tween-80

In the case of `C[C@]12CCC(=O)C=C1CC[C@@H]1[C@@H]2[C@@H](O)C[C@@]2(C)[C@H]1CC[C@]2(O)C(=O)COC(=O)c1ccc([N+](=O)[O-])cc1Cl`, the T/C [1] is reported as 100 % of control, the T/C [2] is reported as 107 % of control and the T/C [3] is reported as 103 % of control.

`O=C1CC(c2ccccc2)=NO1` was tested, and the T/C [4] was 96 % of control, the T/C [5] was 91 % of control and the T/C [6] was 101 % of control. The T/C (dose: 200.0 mg/kg/injection, schedule: Q01DX009 (ip), vehicle: saline with Tween-80) was 107 % of control.

In the case of `Cc1cc(N2CCCCC2)nc(N2CCCCC2)c1C#N`, the T/C [7] is reported as 86 % of control, the T/C [8] is reported as 86 % of control and the T/C [9] is reported as 96 % of control.

For `NCCCC(=O)O`, the T/C [10] was 100 % of control, the T/C [11] was 109 % of control and the T/C [12] was 100 % of control. The T/C [13] was 86 % of control, the T/C [14] was 90 % of control and the T/C [15] was 118 % of control.

For `CCC(CC)C(=O)NC`, the T/C [7] was 104 % of control, the T/C [8] was 104 % of control and the T/C [9] was 95 % of control.

In the case of `CCCCCCCCCC(=O)CCC`, the T/C [11] is reported as 100 % of control, the T/C [13] is reported as 100 % of control and the T/C [15] is reported as 104 % of control.

In the case of `O=[N+]([O-])c1ccc(S(=O)c2ccc([N+](=O)[O-])c3nonc23)cc1` (stereo unspecified), the T/C (dose: 15.0 mg/kg/injection, schedule: Q01DX009 (ip), vehicle: saline with Tween-80) is reported as 90 % of control and the T/C (dose: 30.0 mg/kg/injection, schedule: Q01DX009 (ip), vehicle: saline with Tween-80) is reported as 97 % of control.

`CN=C(N)c1ccc(N=C(N)c2ccc(N=C(N)c3ccc(N)cc3)cc2)cc1` was tested, and the T/C (dose: 16.0 mg/kg/injection, schedule: Q01DX009 (ip), vehicle: saline) was 227 % of control, the T/C (dose: 25.0 mg/kg/injection, schedule: Q01DX009 (ip), vehicle: saline) was 245 % of control and the T/C (dose: 35.0 mg/kg/injection, schedule: Q01DX009 (ip), vehicle: saline) was 195 % of control.

`O=S(=O)(Nc1c(Cl)c(Cl)c(Cl)c(Cl)c1NS(=O)(=O)c1ccccc1)c1ccccc1` was tested, and the T/C [16] was 100 % of control, the T/C [17] was 105 % of control and the T/C [18] was 100 % of control.

For `N#CCCN1c2ccccc2Sc2ccccc21`, the T/C (dose: 50.0 mg/kg/injection, schedule: Q01DX009 (ip), vehicle: Klucel (hydroxypropylcellulose) (HPC)) was 110 % of control, the T/C (dose: 100.0 mg/kg/injection, schedule: Q01DX009 (ip), vehicle: Klucel (hydroxypropylcellulose) (HPC)) was 105 % of control and the T/C (dose: 200.0 mg/kg/injection, schedule: Q01DX009 (ip), vehicle: Klucel (hydroxypropylcellulose) (HPC)) was 110 % of control.

For `O=C1c2cc3c(cc2CCC1c1ccc2c(c1)OCO2)OCO3` (stereo unspecified), the T/C (dose: 20.0 mg/kg/injection, schedule: Q01DX009 (ip), vehicle: saline with Tween-80) was 91 % of control, the T/C (dose: 40.0 mg/kg/injection, schedule: Q01DX009 (ip), vehicle: saline with Tween-80) was 91 % of control and the T/C (dose: 120.0 mg/kg/injection, schedule: Q01DX009 (ip), vehicle: saline with Tween-80) was 95 % of control. The T/C (dose: 240.0 mg/kg/injection, schedule: Q01DX009 (ip), vehicle: saline with Tween-80) was 91 % of control.

`CSc1nc2n(C)cc(C)cc-2c(=O)n1` was tested, and the T/C (dose: 100.0 mg/kg/injection, schedule: Q01DX001 (ip), vehicle: suspension in saline) was 90 % of control.

`[O-][n+]1onc2c(-c3ccccc3)nnc(-c3ccccc3)c21` was tested, and the T/C (dose: 100.0 mg/kg/injection, schedule: Q04DX003 (ip), vehicle: saline sonified) was 104 % of control, the T/C (dose: 200.0 mg/kg/injection, schedule: Q04DX003 (ip), vehicle: saline sonified) was 90 % of control and the T/C (dose: 400.0 mg/kg/injection, schedule: Q04DX003 (ip), vehicle: saline sonified) was 100 % of control.

For `CCOC(=O)CCN(CCCN(C)C)c1cc(O)c2c(c1O)C(=O)c1ccccc1C2=O`, the T/C [7] was 89 % of control, the T/C [8] was 103 % of control and the T/C [9] was 108 % of control.

In the case of `CCN=C=NCCCN(C)C`, the T/C (dose: 7.5 mg/kg/injection, schedule: Q01DX009 (ip), vehicle: saline) is reported as 105 % of control, the T/C (dose: 15.0 mg/kg/injection, schedule: Q01DX009 (ip), vehicle: saline) is reported as 105 % of control and the T/C (dose: 30.0 mg/kg/injection, schedule: Q01DX009 (ip), vehicle: saline) is reported as 94 % of control. The T/C (dose: 60.0 mg/kg/injection, schedule: Q01DX009 (ip), vehicle: saline) was 100 % of control.

In the case of `CC[N+](CC)(CC)CCCCCC[N+](CC)(CC)CC`, the T/C (dose: 1.0 mg/kg/injection, schedule: Q01DX009 (ip), vehicle: water) is reported as 100 % of control, the T/C (dose: 2.0 mg/kg/injection, schedule: Q01DX009 (ip), vehicle: water) is reported as 104 % of control and the T/C (dose: 2.0 mg/kg/injection, schedule: Q04DX003 (ip), vehicle: water) is reported as 102 % of control and 103 % of control. The T/C (dose: 4.0 mg/kg/injection, schedule: Q01DX009 (ip), vehicle: water) was 97 % of control, the T/C (dose: 4.0 mg/kg/injection, schedule: Q04DX003 (ip), vehicle: water) was 116 % of control and the T/C (dose: 6.0 mg/kg/injection, schedule: Q04DX003 (ip), vehicle: water) was 102 % of control. The T/C (dose: 6.25 mg/kg/injection, schedule: Q04DX003 (ip), vehicle: water) was 123 % of control, the T/C (dose: 8.0 mg/kg/injection, schedule: Q01DX009 (ip), vehicle: water) was 104 % of control and the T/C (dose: 8.0 mg/kg/injection, schedule: Q04DX003 (ip), vehicle: water) was 100 % of control.

In the case of `CC1(C)Cc2cc3cc(Cl)ccc3nc2-c2ccccc21`, the T/C (dose: 100.0 mg/kg/injection, schedule: Q01DX009 (ip), vehicle: saline) is reported as 110 % of control, the T/C [16] is reported as 110 % of control and the T/C (dose: 200.0 mg/kg/injection, schedule: Q01DX009 (ip), vehicle: saline) is reported as 105 % of control. For the same molecule, the T/C [17] was 115 % of control, the T/C (dose: 400.0 mg/kg/injection, schedule: Q01DX009 (ip), vehicle: saline) was 110 % of control and the T/C [18] was 110 % of control.

For `N=C([Se])c1ncn(C2OC(CO)C(O)C2O)c1N` (stereo unspecified), the T/C (dose: 6.25 mg/kg/injection, schedule: Q04DX003 (ip), vehicle: saline) was 106 % of control, the T/C (dose: 12.5 mg/kg/injection, schedule: Q04DX003 (ip), vehicle: saline) was 108 % of control and the T/C (dose: 25.0 mg/kg/injection, schedule: Q04DX003 (ip), vehicle: saline) was 111 % of control. The T/C (dose: 50.0 mg/kg/injection, schedule: Q04DX003 (ip), vehicle: saline) was 106 % of control.

`NNC(=O)CCCCCC(=O)NN` was tested, and the T/C [10] was 100 % of control, the T/C (dose: 100.0 mg/kg/injection, schedule: Q01DX009 (ip), vehicle: alcohol) was 110 % of control and the T/C [11] was 95 % of control. For the same molecule, the T/C [12] was 100 % of control, the T/C (dose: 200.0 mg/kg/injection, schedule: Q01DX009 (ip), vehicle: alcohol) was 95 % of control and the T/C [13] was 113 % of control. The T/C [14] was 100 % of control, the T/C (dose: 400.0 mg/kg/injection, schedule: Q01DX009 (ip), vehicle: alcohol) was 90 % of control and the T/C [15] was 90 % of control.

With `Cc1c(Cl)cccc1NC(=O)COc1ccc(Cl)cc1Cl` the T/C [1] was 108 % of control, the T/C [2] was 87 % of control and the T/C [3] was 95 % of control.

In the case of `O=[N+]([O-])c1ccc(S(=O)c2ccccc2)c2c1no[n+]2[O-]` (stereo unspecified), the T/C (dose: 22.5 mg/kg/injection, schedule: Q01DX009 (ip), vehicle: saline with Tween-80) is reported as 92 % of control and the T/C (dose: 45.0 mg/kg/injection, schedule: Q01DX009 (ip), vehicle: saline with Tween-80) is reported as 93 % of control.

In the case of `O=C(O)CC1SC(=S)N(c2ccccc2)C1=O` (stereo unspecified), the T/C [5] is reported as 101 % of control and the T/C [6] is reported as 105 % of control.

For `NNc1ncnc2c1ccn2C1OC(CO)C(O)C1O` (stereo unspecified), the T/C [4] was 150 % of control, the T/C (dose: 25.0 mg/kg/injection, schedule: Q04DX003 (ip), vehicle: saline with Tween-80) was 104 % of control and the T/C (dose: 37.5 mg/kg/injection, schedule: Q01DX009 (ip), vehicle: saline with Tween-80) was 155 % of control. For the same molecule, the T/C [5] was 100 % of control, the T/C [19] was 108 % of control and the T/C [1] was 108 % of control.

With `CC1OCC2OC(C)OC(C(COC(c3ccccc3)(c3ccccc3)c3ccccc3)OS(C)(=O)=O)C2O1` (stereo unspecified) the T/C [11] was 100 % of control, the T/C [13] was 104 % of control and the T/C [15] was 108 % of control.

For `Cc1cccc2cc3cccc(C)[n+]3cc12`, the T/C (dose: 5.0 mg/kg/injection, schedule: Q01DX010 (ip), vehicle: saline) was 100 % of control.

For `Cc1ccc(NC(=O)C2CCC(C)(C(=O)O)C2(C)C)cc1` (stereo unspecified), the T/C [19] was 109 % of control, the T/C [1] was 90 % of control and the T/C [2] was 104 % of control.
